Here are results for four molecules from article PMC3735853 (Journal of biomolecular screening, 2013).

Like-named read-outs stand apart in the source and are kept apart here.

One experiment has as its target hV2R[L^83Q] (Homo sapiens, UniProt P30518, L83Q). Briefly: uHTS optimized primary V2R pharmacoperone assay. The experiment is classed as cell-based. The settings on record: for LOPAC Screen Average %Response +/−Std Dev: single concentration of 6 μM (0.4% DMSO), normalized to 100 nM SR121463 (positive) and DMSO (negative), triplicate.
The next experiment addresses V2R. Particulars: cited from earlier work.

The EC50 is the concentration needed to bring the measured effect to its halfway point. What is called Ki is a measure of affinity in units of concentration, obtained from inhibition or displacement. Take `CCOc1ccc2c(c1)C1(CCC(OCCN3CCOCC3)CC1)C(=O)N2S(=O)(=O)c1ccc(C(=O)NC(C)(C)C)cc1OC` (stereo not drawn) [SR121463]: the “lowest level detectable in the assay system” value at hV2R[L^83Q] (no-wash protocol) was 1 nM. On hV2R[L^83Q] (read-out: EC50 (pharmacoperone rescue), presence of 1 μM vasopressin, no-wash protocol, absence of doxycycline (n=4)), the EC50 stood at 1.97 ± 0.25 nM. Moreover, the Ki at V2R (read-out: Ki (antagonist), no reference given) is roughly 1 nM; on V2R (read-out: Ki of SR121463 (literature value), used to perform the fit) it was 0.94 nM.

Consider `Cc1ccccc1N1CCN(S(=O)(=O)C[C@]23CC[C@H](C[C@@H]2NC(=O)[C@@H](N)CCS(C)(=O)=O)C3(C)C)CC1` [L-368,899], for which the “LOPAC Screen Average %Response +/−Std Dev” value on hV2R[L^83Q] is 74+/−2%.

As for `C[C@H]1CCC/C=C/[C@@H]2C[C@H](O)C[C@H]2[C@H](O)/C=C/C(=O)O1` [Brefeldin A], at hV2R[L^83Q], a half-maximal effect (EC50) was put at 270 nM and the “LOPAC Screen Average %Response +/−Std Dev” value is 43+/−1%.

`C=C[C@@]1(C)CC(=O)[C@]2(O)[C@@]3(C)[C@@H](O)CCC(C)(C)[C@@H]3[C@H](O)[C@H](OC(C)=O)[C@@]2(C)O1` [Forskolin]: at hV2R[L^83Q], the EC50 came to 430 nM and the “LOPAC Screen Average %Response +/−Std Dev” value is on record as 104+/−0%.
